{
  "source": "patent US8178545B2",
  "about": "“Dual small molecule inhibitors of cancer and angiogenesis” (University of Virginia Patent Foundation, priority 2004, dated 2012)",
  "key": {"[1]": {"system": "HeLa cells", "test": "Mitotic spindle formation", "format": "cell-based", "settings": "low micromolar concentrations"}, "[2]": {"system": "tubulin", "test": "Microtubule disruption / tubulin depolymerization", "format": "cell-based", "settings": "for Microtubule activity (% depolymerization): at 5 μM"}, "[3]": {"system": "Human Umbilical Vein Endothelial Cells (HUVEC)", "test": "Endothelial cell proliferation", "format": "cell-based", "settings": "triplicate, ± SEM", "source_text": "(§1) Without wishing to be bound by any particular theory, strategies and experiments are described herein pertaining to developing an anti-cancer strategy of simultaneously inhibiting endothelial and cancer cells. […] The taxanes, taxol and docetaxel, vinblastine, vincristine and 2-methoxyestradiol all have anti-angiogenic activity in vivo. […] SC-2-71's ability to inhibit angiogenesis in an in vivo model was then examined."}, "[4]": {"system": "Human Microvessel Endothelial Cells (HMEC)", "test": "Endothelial cell proliferation", "format": "cell-based", "settings": "triplicate, ± SEM", "source_text": "as §1"}, "[5]": {"system": "MDA-MB-435 cells", "test": "Anti-proliferative activity, SRB assay", "format": "cell-based", "settings": "Homo sapiens"}, "[6]": {"system": "NCI/ADR cells (Pgp expressing)", "test": "Proliferation of Pgp expressing cell line", "format": "cell-based", "settings": "for IC50: Homo sapiens, NCI/ADR-RES; for Rr value: relative resistance, NCI/ADR vs MDA-MB-435", "source_text": "Relative resistance (Rr) values can be calculated by dividing the IC50 of the […] cell line."}, "[7]": {"system": "NCI 60 human cell lines", "test": "NCI 60 human cell lines (GI50)", "format": "cell-based", "settings": "several cell lines of the NCI 60 panel", "source_text": "FIG. 1 Depicts the effects of SC-2-71 against the NCI 60 human cell lines (GI50).\nSeveral interesting findings are evident."}, "[8]": {"system": "MDA-MB-435 cells", "test": "Cell cycle progression by flow cytometry", "format": "cell-based", "settings": "3 μM for 18 h, Krishan's reagent", "description": "The effects of SC-2-71 on cell cycle progression were determined using flow cytometry techniques. MDA-MB-435 cells were treated with 3 μM SC-2-71 for 18 h, stained with Krishan's reagent and DNA content analyzed."}, "[9]": {"system": "KM12", "test": "NCI anticancer drug screen, proliferation (GI50)", "format": "cell-based", "settings": "Homo sapiens", "description": "(§2) SC-2-71 was evaluated against human cultured cell lines in the NCI Anticancer Drug Development Program. […] This includes potent inhibition of colon cancer cells from primary tumors, distal metastasis and ascites fluid."}, "[10]": {"system": "COLO205", "test": "NCI anticancer drug screen, proliferation (GI50)", "format": "cell-based", "settings": "Homo sapiens, COLO 205", "description": "as §2"}, "[11]": {"system": "HCC-2998", "test": "NCI anticancer drug screen, proliferation (GI50)", "format": "cell-based", "settings": "Homo sapiens", "description": "as §2"}, "[12]": {"system": "SW-620", "test": "NCI anticancer drug screen, proliferation (GI50)", "format": "cell-based", "settings": "Homo sapiens", "description": "as §2"}, "[13]": {"system": "HCT-116", "test": "NCI anticancer drug screen, proliferation (GI50)", "format": "cell-based", "settings": "Homo sapiens, grade III tumor cells (HCT116)", "description": "as §2"}, "[14]": {"system": "HT29", "test": "NCI anticancer drug screen, proliferation (GI50)", "format": "cell-based", "settings": "Homo sapiens, HT-29", "description": "as §2"}, "[15]": {"system": "HCT-15", "test": "NCI anticancer drug screen, proliferation (GI50)", "format": "cell-based", "settings": "Homo sapiens", "description": "as §2"}, "[16]": {"system": "blood vessels on the chick chorioallantoic membrane", "test": "Chick chorioallantoic membrane (CAM) model of blood vessel growth", "format": "in vivo", "settings": "100 μM, compared to control", "description": "SC-2-71 (100 μM) inhibited a translational model of blood vessel growth in vivo (CAM, FIG. 8, panel B and C) as compared to control (FIG. 8, panel A). This strongly establishes that SC-2-71 has anti-angiogenic activity. Further it raises the question as to the expression level of βIII tubulin in HMECs."}, "[17]": {"system": "A-10 cells", "test": "Cell based phenotypic screen of microtubule disruption", "source_text": "FIG. 2 Depicts the microtubule depolymerizing effects of SC-2-71 in A-10 cells.\nThe microtubule disrupting effects of SC-2-71 were detected in a cell based phenotypic screen (FIG. 2). […] This effect is consistent with the effects observed from other microtubule depolymerizers. […] This is also a hallmark of microtubule disrupting compounds. Depolymerization of interphase microtubules is a classic response of cells to relatively high concentrations of microtubule disruptors such as the vinca alkaloids."}, "[18]": {"system": "SW-620", "settings": "NCI data; cited from earlier work"}, "[19]": {"system": "HCT-116", "settings": "NCI data; cited from earlier work"}, "[20]": {"system": "COLO205", "settings": "NCI data; cited from earlier work"}, "[21]": {"system": "HCC-2998", "settings": "NCI data; cited from earlier work"}, "[22]": {"system": "KM12", "settings": "NCI data; cited from earlier work"}, "[23]": {"system": "HT29", "settings": "NCI data; cited from earlier work"}, "[24]": {"system": "HCT-15", "settings": "NCI data; cited from earlier work"}, "[25]": {"system": "NCI/ADR cells (Pgp expressing)", "settings": "NCI/ADR (Pgp expressing) and MDA-MB-435 (Pgp deficient); Tinley et al. 2003; cited from earlier work"}},
  "note": "Entries after “also recorded” stand apart in the source; their conditions may differ. Like-named read-outs stand apart in the source and are kept apart here.",
  "data": [
    {"smiles": "O=C1NC(c2ccc(-c3ccccc3)cc2)Nc2ccccc21", "note": "(stereo not drawn) [SC-2-71]", "values": [
      {"measurement": "mitotic spindles and mitotic accumulation", "setting": "[1]", "result": "formation of abnormal mitotic spindles and mitotic accumulation"},
      {"measurement": "Microtubule activity (% depolymerization)", "setting": "[2]", "result": 50, "unit": "%"},
      {"measurement": "IC50", "setting": "[3]; Homo sapiens, HUVEC", "result": 1600, "unit": "nM"},
      {"measurement": "IC50", "setting": "[3]", "result": "1660 ± 500", "unit": "nM"},
      {"measurement": "IC50", "setting": "[4]", "result": 20, "unit": "µM"},
      {"measurement": "IC50", "setting": "[5]", "result": "0.61 ± 0.1", "unit": "µM"},
      {"measurement": "IC50", "setting": "[6]", "result": "1.8 ± 0.11", "unit": "µM"},
      {"measurement": "transport by Pgp", "setting": "[6]; inferred from Rr values", "result": "poor substrate for transport by Pgp"},
      {"measurement": "Rr value", "setting": "[6]", "result": 2.95},
      {"measurement": "GI50", "setting": "[7]", "result": "> 100", "unit": "µM"},
      {"measurement": "cell cycle progression (DNA content)", "setting": "[8]", "result": "distinct mitotic accumulation"},
      {"measurement": "GI50", "setting": "[9]", "result": 2000, "unit": "nM"},
      {"measurement": "GI50", "setting": "[10]", "result": 900, "unit": "nM"},
      {"measurement": "GI50", "setting": "[11]; HCC 2998, colon HCC2998, read-out: lowest GI50", "result": 68, "unit": "nM"},
      {"measurement": "GI50", "setting": "[11]; HCC-2998, read-out: GI50", "result": 68, "unit": "nM"},
      {"measurement": "GI50", "setting": "[12]", "result": 4, "unit": "µM"},
      {"measurement": "GI50", "setting": "[13]", "result": 500, "unit": "nM"},
      {"measurement": "GI50", "setting": "[14]", "result": 1000, "unit": "nM"},
      {"measurement": "GI50", "setting": "[15]", "result": 400, "unit": "nM"},
      {"measurement": "blood vessel growth (CAM)", "setting": "[16]", "result": "inhibited"},
      {"measurement": "micronucleation", "setting": "[17]", "result": "extensive micronucleation"},
      {"measurement": "effect on cellular microtubules", "setting": "[17]; interphase microtubule network", "result": "concentration dependent loss of cellular microtubules"}
    ]},
    {"smiles": "O=C(c1ccccc1)c1ccc(C2NC(=O)c3ccccc3N2)cc1Cl", "note": "(stereo not drawn) [SC-5-87]", "values": [
      {"measurement": "Microtubule activity (% depolymerization)", "setting": "[2]", "result": 90, "unit": "% at 5 μM"},
      {"measurement": "IC50", "setting": "[5]", "result": "0.26 ± 0.02", "unit": "µM"},
      {"measurement": "IC50", "setting": "[6]", "result": "0.76 ± 0.01", "unit": "µM"},
      {"measurement": "Rr value", "setting": "[6]", "result": 2.9}
    ]},
    {"smiles": "Cc1ccccc1-c1ccc(C2NC(=O)c3ccccc3N2)cc1", "note": "(stereo not drawn) [SC-5-121]", "values": [
      {"measurement": "Microtubule activity (% depolymerization)", "setting": "[2]", "result": 90, "unit": "% at 5 μM"},
      {"measurement": "IC50", "setting": "[5]", "result": "0.6 ± 0.1", "unit": "µM"},
      {"measurement": "IC50", "setting": "[6]", "result": "0.88 ± 0.03", "unit": "µM"},
      {"measurement": "Rr value", "setting": "[6]", "result": 1.2}
    ]},
    {"smiles": "O=c1[nH]cc(F)c(=O)[nH]1", "note": "[Compound 5FU, 5-Fluorouracil]", "values": [
      {"measurement": "GI50", "setting": "[18]", "result": 26.2, "unit": "µM"},
      {"measurement": "GI50", "setting": "[19]", "result": 4000, "unit": "nM"},
      {"measurement": "GI50", "setting": "[20]", "result": 7.2, "unit": "µM"},
      {"measurement": "GI50", "setting": "[21]", "result": 1400, "unit": "nM"},
      {"measurement": "GI50", "setting": "[22]", "result": 11.1, "unit": "µM"},
      {"measurement": "GI50", "setting": "[23]", "result": 6.7, "unit": "µM"},
      {"measurement": "GI50", "setting": "[24]", "result": 5800, "unit": "nM"}
    ]},
    {"smiles": "O=C(c1ccccc1)c1ccc(C2NC(=O)c3ccccc3N2)cc1", "note": "(stereo not drawn) [SC-4-283]", "values": [
      {"measurement": "inhibition of tubulin polymerization", "setting": "[2]", "result": "improved inhibitory activity in relation to SC-2-71; also recorded: potent inhibitor of tubulin polymerization"},
      {"measurement": "Microtubule activity (% depolymerization)", "setting": "[2]", "result": 50, "unit": "% at 5 μM"},
      {"measurement": "IC50", "setting": "[5]", "result": "0.9 ± 0.3", "unit": "µM"}
    ]},
    {"smiles": "CC[C@]1(O)C[C@H]2CN(CCc3c([nH]c4ccccc34)[C@@](C(=O)OC)(c3cc4c(cc3OC)N(C=O)[C@H]3[C@@](O)(C(=O)OC)[C@H](OC(C)=O)[C@]5(CC)C=CCN6CC[C@]43[C@@H]65)C2)C1", "note": "[Vincristine]", "values": [
      {"measurement": "GI50", "setting": "[18]", "result": 0.11, "unit": "µM"},
      {"measurement": "GI50", "setting": "[19]", "result": 120, "unit": "nM"},
      {"measurement": "GI50", "setting": "[20]", "result": 0.12, "unit": "µM"},
      {"measurement": "GI50", "setting": "[21]", "result": 110, "unit": "nM"},
      {"measurement": "GI50", "setting": "[22]", "result": 0.12, "unit": "µM"},
      {"measurement": "GI50", "setting": "[23]", "result": 0.11, "unit": "µM"},
      {"measurement": "GI50", "setting": "[24]", "result": 140, "unit": "nM"}
    ]},
    {"smiles": "CC(=O)O[C@H]1C(=O)[C@@]2(C)[C@H]([C@H](OC(=O)c3ccccc3)[C@]3(O)C[C@H](OC(=O)[C@H](O)[C@@H](NC(=O)c4ccccc4)c4ccccc4)C(C)=C1C3(C)C)[C@]1(OC(C)=O)CO[C@@H]1C[C@@H]2O", "note": "[taxol]", "values": [
      {"measurement": "Rr value", "setting": "[25]", "result": 827}
    ]}
  ]
}
